# Test results published in publication PMC6214915, “Design of a novel cell-permeable chimeric peptide to promote wound healing” (Scientific Reports, 2018).
# Peptide text beside a SMILES is read from it.
# Experiments:
# [1] = Circular dichroism spectroscopy (secondary structure); assay type: physicochemical; conditions: for Percentage of the α-helix content: phosphate buffer / Percentage of the α-helix content: 50% TFE: CD, 20 µM peptide, calculated from ellipticity at 222 nm; for Percentage of the α-helix content: phosphate buffer: 10 mM phosphate buffer pH 7.0, 20 °C; for Percentage of the α-helix content: 50% TFE: 10 mM phosphate buffer pH 7.0 with 50% TFE, 20 °C; for R-value: ratio between molar ellipticity values at 222 and 208 nm, in the presence of 50% TFE, R = 1 perfect α-helix
# Experimental: Figure 1 Structural characteristics of investigated peptides. CD spectra were acquired at a peptide concentration of 20 µM in 10 mM phosphate buffer, pH 7.0 (A) and in the additional presence of 50% TFE (B). The percentage of the α-helix content was calculated from the ellipticity value at 222 nm using the following formula: (% α-helix = ((([Θ222]−3000)⁄(−36000−3000)) × 100)[47] (C). R-values represent the ratio between the molar ellipticity values at 222 and 208 nm[20] and R = 1 defined as hallmark for a perfectly built α-helix[48]. Helical wheel projections of Tylotoin-sC18* and sC18*-Tylotoin predicted by HeliQuest (D). TEXT PRINTED IN THE PICTURE: (C) Tylotoin-sC18: Percentage of the α-helix content: phosphate buffer: 12.1; Percentage of the α-helix content: 50% TFE: 46.3; R-value: 0.85 | (C) sC18-Tylotoin: Percentage of the α-helix content: phosphate buffer: 13.1; Percentage of the α-helix content: 50% TFE: 43.5; R-value: 0.87 | (C) Tylotoin-sC18*: Percentage of the α-helix content: phosphate buffer: 10.7; Percentage of the α-helix content: 50% TFE: 46.3; R-value: 0.77 | (C) sC18*-Tylotoin: Percentage of the α-helix content: phosphate buffer: 6.9; Percentage of the α-helix content: 50% TFE: 40.5; R-value: 0.74 | (C) Tylotoin: Percentage of the α-helix content: phosphate buffer: 15.6; Percentage of the α-helix content: 50% TFE: 25.0; R-value: 0.51
# CD spectra were recorded from 180 nm to 270 nm in 0.5 nm intervals at 20 °C using a JASCO J-715 spectropolarimeter in an N2 atmosphere. The CD spectra were measured using a 1 mm quartz cuvette and the instrument parameters were set as follows: sensitivity, 100 mdeg; scan mode, continuous; scan speed, 50 nm/min; response time, 2 sec and bandwidth, 1.0 nm. Peptides were dissolved in 10 mM potassium phosphate buffer (pH 7.0) containing either 0 or 50% (v/v) trifluoroethanol (TFE) to a final peptide concentration of 20 µM.
# [2] = system: human keratinocytes HaCaT; assay: MTT cell viability assay on HaCaT keratinocytes; assay type: cell-based; conditions: 24 h, 37 °C; for Effect on HaCaT cells at higher concentrations: >50 µM; for Cytotoxic effect on keratinocytes viability: 10 to 100 µM, serum-free medium, triplicate, n = 3
# Experimental: Figure 2 Cytotoxic profile of peptides against human keratinocytes HaCaT. Cells were incubated with indicated concentrations of peptides at 37 °C for 24 h. Cell viability of HaCaT cells was determined by MTT assay relative to untreated cells (set to 100%). As positive control, cells were treated with 70% EtOH for 10 min. Experiments were conducted in triplicate with n = 3. Error bars represent standard deviation. (**p < 0.01; ***p < 0.001).
# The toxic effect of the investigated peptides on HaCaT cells was evaluated using the [3(4,5-dimethylthiazol-2yl)2,5-diphenyltetrazolium bromide] (MTT) colorimetric method. MTT is a tetrazolium salt which is reduced to a purple colored formazan product by mitochondrial reductases, present only in metabolically active cells. Keratinocytes were seeded onto a 96-well microtiter plate at a density of 8 × 10^4 cells per well in DMEMg supplemented with 2 mM L-Gln and 2% FBS. After reaching 70–80% confluency, the medium was removed and cells were incubated at 37 °C for 24 h with peptides at different concentrations ranging from 10 to 100 µM (in serum-free medium). After 24 h of incubation, 10 µl of MTT (in PBS, 0.45 mg/ml final) were added to each well. After 4 h incubation, the supernatants were removed and the formazan crystals were dissolved by adding 100 μl of dimethyl sulfoxide (DMSO). For the positive control, cells were treated with 70% EtOH for 10 min. The absorption was measured at 570 nm and at a reference wavelength of 630 nm using Tecan infinite M200 plate reader.
# HeLa cells = assay: Resazurin-based cell viability assay on HeLa cells; set-up: species or system human; conditions: 24 h, serum-free RPMI, triplicate, n = 3
# Experimental: Figure 9 The efficacy of Tylotoin-sC18* towards cancer cells. Microscopic image of HeLa cells treated for 30 min with CF-labeled Tylotoin-sC18* (10 µM, green) at 37 °C (A). Quantification of the cellular uptake of 10 µM CF-labeled peptides for 30 min at 37 °C by flow cytometry (B). Cell viability of HeLa cells after treatment for 24 h with Tylotoin-sC18*, sC18* and Tylotoin, respectively (C). Cells treated with 70% ethanol served as positive control. Data are normalized to untreated cells (100% cell viability). Experiments were performed in triplicate with n = 3. Error bars represent standard deviation. (*p < 0.05).
# For a resazurin-based cell viability assay, HeLa cells were seeded onto a 96-well plate, grown to 70–80% confluency and incubated with various concentrations of peptides in serum-free RPMI growth medium for 24 h under standard growth conditions. For the positive control, cells were treated with 70% EtOH for 10 min. After washing with serum-free medium, resazurin solution (10% in serum-free media, v/v) was incubated with the cells for 1 h at 37 °C. Subsequently, cell viability was determined relative to untreated cells by measurement of the resorufin product at 595 nm (λex = 550 nm) on a Tecan infinite M200 plate reader.
# [3] = cited from earlier work
# Excerpt: Therefore, it was particularly interesting whether the combination of both, Tylotoin ...
# Micrococcus luteus = assay type: cell-based, Micrococcus luteus (DSM 20030); conditions: 6 h
# Experimental: HaCaT (immortalized human keratinocytes) and HeLa (human cervix carcinoma) cells were cultured in sterile 10 cm petri dishes at 37 °C in a humidified atmosphere of 5% CO2. HaCaT cells were maintained in DMEM containing 4,500 mg/l glucose (DMEMg), 2 mM L-Gln and 10% FBS (fetal bovine serum). HeLa cells were grown in RPMI 1640 supplemented with 4 mM L-Gln and 10% FBS. Bacteria used were Micrococcus luteus (DSM 20030) and Salmonella typhimurium (TA 100). Mueller Hinton (MH) broth agar plates were used for maintenance und MH broth medium was used to carry out antimicrobial activity studies.
# Antimicrobial activity of peptide conjugates against gram-positive and gram-negative bacteria was conducted using the p-iodonitrotetrazolium-chloride (INT) violet assay as previously described. INT is a tetrazolium-based reagent which is converted to a pink formazan dye in the presence of metabolically active bacteria.
# In brief, M. luteus and S. typhimurium were cultured in MH broth overnight at 37 °C while mild shaking (180 rpm). Overnight-cultured bacteria were added into fresh medium, grown to an optical density of 0.7 at 600 nm and 10 µl bacterial solution were added in triplicate to wells of a 96-well plate (BD Falcon, USA). […] The viability of bacteria relative to untreated bacteria was determined by measuring the absorption at 540 nm on a Tecan infinite M200 plate reader.
# Salmonella typhimurium = conditions: 6 h
# Experimental: Antimicrobial activity of peptide conjugates against gram-positive and gram-negative bacteria was conducted using the p-iodonitrotetrazolium-chloride (INT) violet assay as previously described[33].
# In brief, M. luteus and S. typhimurium were cultured in MH broth overnight at 37 °C while mild shaking (180 rpm). Overnight-cultured bacteria were added into fresh medium, grown to an optical density of 0.7 at 600 nm and 10 µl bacterial solution were added in triplicate to wells of a 96-well plate (BD Falcon, USA). The peptides used at various concentrations and 180 µl of MH medium were added to each corresponding well and incubated for 6 h at 37 °C. 10 µM chloramphenicol served as positive control and H20 was used as negative control. After incubation time, 10 μl of the freshly prepared INT solution (1 mg/ml in DMSO) were added to each well and incubated for further 30 min at 37 °C. The viability of bacteria relative to untreated bacteria was determined by measuring the absorption at 540 nm on a Tecan infinite M200 plate reader.
# [4] = cited from earlier work; remark: listed apart in the source
# Excerpt: So far, very few studies have been conducted for the use of CPPs in the application field of human skin wound healing[12]–[14]. Thus, to our knowledge, we report for the first time on the fusion of a well-characterized cell penetrating peptide, namely sC18, to a wound healing promoting peptide sequence Tylotoin. This latter short peptide was recently identified and isolated from the skin of the salamander Tylototriton verrucosus. […] More precisely, Tylotoin ...
# HaCaT cells = assay: Cellular uptake of CF-labeled peptides into HaCaT cells (flow cytometry and confocal microscopy); assay type: cell-based, human; conditions: 10 µM CF-labeled peptides, 30 min, 37 °C, confocal microscopy
# Experimental: Cells were seeded in a µ-slide 8-well (Ibidi) plate (HaCaT 90,000; HeLa 45,000) and grown to 70–80% confluency. Then, the cells were incubated with CF-labeled peptides in serum-free medium for the requested time at either 4 °C or 37 °C as indicated. The nuclei were stained for 10 min with 0.6 µl Hoechst 33342 nuclear dye (bisbenzimide H33342, 1 mg/ml in H2O, sterile filtered) prior to the end of peptide incubation. Finally, the solutions were removed and cells were treated for 30 s with trypan blue (150 µM in 0.1 M acetate buffer, pH 4.15) for quenching external fluorescence. After washing twice with PBS, 300 µl of FBS-containing growth medium were added to each well. Images were taken by using a Nikon Eclipse Ti confocal laser scanning microscope equipped with a 60x oil-immersion objective (N.A. 1.4, Plan APO VC, Nikon). Images were recorded with Nikon EZ-C1 software and adjusted equally with ImageJ software.
# For treatment with endocytosis inhibitor, 80 µM of dynasore (in serum-free medium, Sigma-Aldrich) was added to the cells. After 1 h of incubation at 37 °C, CF-labeled peptide solution (in serum-free medium, 10 µM final) was added and incubated for further 30 min. Afterwards, the cells were handled as described above.
# Cells were seeded in triplicate in a 24-well plate (HaCaT 370,000; HeLa 170,000) and grown to 70–80% confluency under normal growth conditions. […]
Molecule,Percentage of the α-helix content: phosphate buffer [1] [%],Percentage of the α-helix content: 50% TFE [1] [%],R-value [1],Effect on HaCaT cells at higher concentrations [2],Cytotoxic effect on keratinocytes viability [2],Antimicrobial activity [3],other results
"GLRKRLRKFRNKIKEKKCVRQNNKRVCK-NH2 [sC18-Tylotoin, chimeric peptide, CPP sC18 fused N-terminally to Tylotoin]",13.1,43.5,0.87,negatively affect the cells,–,–,–
"KCVRQNNKRVCKGLRKRLRKFRNKIKEK-NH2 [Tylotoin-sC18, chimeric peptide, CPP sC18 fused to the C-terminus of Tylotoin]",12.1,46.3,0.85,–,no cytotoxic effect at all,–,–
"KCVRQNNKRVCK-NH2 [Tylotoin, wound healing promoting peptide from skin of the salamander Tylototriton verrucosus; made as C-terminal amide without disulfide bridge, reference compound]",15.6,25.0,0.51,–,no cytotoxic effect at all,did not show any antimicrobial activity,"Cell viability of HeLa cells (HeLa cells): remained unharmed; Antimicrobial activity against M. luteus (Micrococcus luteus; INT assay, 37 °C): no antimicrobial activity; Antimicrobial activity against S. typhimurium (Salmonella typhimurium; INT assay, 37 °C): no antimicrobial activities; Proliferation of HaCaT cells [2]: enhance the proliferation; Wound healing in a murine model [4]: promote wound healing similar to hEGF"
CC(C)C[C@H](NC(=O)CNC(=O)[C@H](CCCCN)NC(=O)[C@H](CS)NC(=O)[C@@H](NC(=O)[C@H](CCCNC(=N)N)NC(=O)[C@H](CCCCN)NC(=O)[C@H](CC(N)=O)NC(=O)[C@H](CC(N)=O)NC(=O)[C@H](CCC(N)=O)NC(=O)[C@H](CCCNC(=N)N)NC(=O)[C@@H](NC(=O)[C@H](CS)NC(=O)[C@@H](N)CCCCN)C(C)C)C(C)C)C(=O)N[C@@H](CCCNC(=N)N)C(=O)N[C@@H](CCCCN)C(=O)N[C@@H](CCCNC(=N)N)C(=O)N[C@@H](CC(C)C)C(=O)N[C@@H](CCCNC(=N)N)C(=O)N[C@@H](CCCCN)C(=O)N[C@@H](Cc1ccccc1)C(=O)N[C@@H](CCCNC(=N)N)C(=O)N[C@@H](CC(N)=O)C(=O)N[C@@H](CCCCN)C(N)=O [Tylotoin-sC18*] (H-KCVRQNNKRVCKGLRKRLRKFRNK-NH2; N-terminus assumed),–,–,–,–,–,–,MIC value (Micrococcus luteus): 13.47 µM; MIC value (Salmonella typhimurium; murium): ~ 12.64 µM
"GLRKRLRKFRNKKCVRQNNKRVCK-NH2 [sC18*-Tylotoin, chimeric peptide, CPP sC18* fused N-terminally to Tylotoin]",6.9,40.5,0.74,–,slight decrease in cell viability,–,Difference in relative cell viability between sC18* and sC18*-Tylotoin [2]: about 40%
"GLRKRLRKFRNKIKEK-NH2 [sC18, cell penetrating peptide recently developed in the authors' group; control peptide]",–,–,–,negatively affect the cells,–,moderate antimicrobial activities,Intracellular distribution in keratinocytes (HaCaT cells): some nuclear uptake was visible
